Data as given in patent US20050228016A1, “TETRAHYDROQUINOLINES FOR MODULATING THE EXPRESSION OF EXOGENOUS GENES VIA AN ECDYSONE RECEPTOR COMPLEX” (priority 2002, published 2005).

Columns and labels:
DmEcR + LmUSP = biological target: T1, DmEcR + LmUSP (Drosophila melanogaster, UniProt P34021); conditions: DmEcR + LmUSP in 3T3 cells, reporter assayed 48 h after ligand
T1 sequence (P34021 342-878): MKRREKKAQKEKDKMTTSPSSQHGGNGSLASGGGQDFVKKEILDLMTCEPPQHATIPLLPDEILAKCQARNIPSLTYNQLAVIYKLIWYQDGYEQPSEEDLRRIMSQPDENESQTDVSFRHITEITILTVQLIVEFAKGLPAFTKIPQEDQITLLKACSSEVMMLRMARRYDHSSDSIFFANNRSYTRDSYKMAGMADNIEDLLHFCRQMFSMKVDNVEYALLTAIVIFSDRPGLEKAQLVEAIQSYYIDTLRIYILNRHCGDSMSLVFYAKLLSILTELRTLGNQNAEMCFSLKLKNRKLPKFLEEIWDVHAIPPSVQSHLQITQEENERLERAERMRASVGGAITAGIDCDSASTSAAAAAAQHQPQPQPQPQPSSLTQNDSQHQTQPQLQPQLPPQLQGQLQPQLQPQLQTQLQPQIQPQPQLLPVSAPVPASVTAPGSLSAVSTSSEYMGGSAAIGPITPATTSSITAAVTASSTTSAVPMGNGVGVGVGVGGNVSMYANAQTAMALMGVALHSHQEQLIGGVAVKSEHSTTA
Description: (§1) To determine if any of the compounds shown in Table 1 and Table 2 can act as inducers of reporter gene activity in a transactivation assay, these compounds were tested in NIH3T3 cells transfected with pFRLUC reporter and gene expression cassettes, 1.1 to 1.8 described in Example 1. […] At 48 hr after adding ligand, the cells were harvested and reporter activity was assayed using Dual Luciferase assay kit (Promega carporation). Total relative light units (RLU) are shown. Standard methods for culture and maintenance of the cells were followed.
(§2) Transfections: DNAs corresponding to the various switch constructs outlined in Example I, specifically switches 1.1 through 1.8, were transfected into mouse NIH3T3 cells (ATCC) as follows. Cells were harvested when they reached 50% confluency and plated in 6-, 12- or 24-well plates at 125,000, 50,000, or 25,000 cells, respectively, in 2.5, 1.0, or 0.5 ml of growth medium containing 10% fetal bovine serum (FBS), respectively. The next day, the cells were rinsed with growth medium and transfected for four hours. […] For 12-well plates, 4 μl of Superfect™ was mixed with 100 μl of growth medium. 1.0 μg of reporter construct and 0.25 μg of each receptor construct of the receptor pair to be analyzed were added to the transfection mix. A second reporter construct was added [pTKRL (Promega), 0.1 μg/transfection mix] that comprises a Renilla luciferase gene operably linked and placed under the control of a thymidine kinase (TK) constitutive promoter and was used for normalization. The contents of the transfection mix were mixed in a vortex mixer and let stand at room temperature for 30 min. At the end of incubation, the transfection mix was added to the cells maintained in 400 μl growth medium. The cells were maintained at 37° C. and 5% CO2 for four hours. At the end of incubation, 500 μl of growth medium containing 20% FBS and either dimethylsulfoxide (DMSO; control) or a DMSO solution of 0.1, 1, and 10 μM ligand was added and the cells were maintained at 37° C. and 5% CO2 for 48 hours. The cells were harvested and reporter activity was assayed. The same procedure was followed for 6 and 24 well plates as well except all the reagents were doubled for 6 well plates and reduced to half for 24-well plates.
(§3) Ligands: All ligands were dissolved in DMSO and the final concentration of DMSO was maintained at 0.1% in both controls and treatments.
(§4) Reporter Assays: Cells were harvested 48 hours after adding ligands. 125, 250, or 500 μl of passive lysis buffer (part of Dual-luciferase™ reporter assay system from Promega Corporation) were added to each well of 24- or 12- or 6-well plates respectively. The plates were placed on a rotary shaker for 15 minutes. Twenty μl of lysate were assayed. Luciferase activity was measured using Dual-luciferase™ reporter assay system from Promega Corporation following the manufacturer's instructions.

CfEcR + LmUSP = CfEcR + LmUSP in 3T3 cells, reporter assayed 48 h after ligand
Description: 1.9—Gal4CfEcR-DEF/VP16LmRXR-EF: This construct was prepared in the same way as switch 1.1 except LmRXR-EF (SEQ ID NO: 18) was used in place of HsRXRβ-LmRXREF chimera.
as §1, §2, §3, §4

[1] = system: GAL4 DBD-CfEcR(DEF)/VP16AD-MmRXRE; conditions: CHO 13B3 clone, 48 h, average of two wells
How it was run: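 CHO 13B3 clone stably expressing GAL4 DBD-CfEcR(DEF) and VP16AD-MmRXRE with GAL4 RE-luciferase reporter; ligands from DMSO stocks diluted 300-fold. Luciferase read 48 h after treatment; duplicate wells averaged, fold induction = RLU ligand-treated / RLU DMSO-treated.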

[2] = biological target: T2, GAL4AaEcR-DEF/VP16HsRXRβ-EF (Aedes aegypti, UniProt P49880); assay: Transactivation reporter assay, AaEcR based switch (1.4) in NIH3T3 cells; type: cell-based; conditions: mammalian cells; FIGS. 2-5
T2 construct: expressed in transfected cells; host or cells: mouse NIH3T3 cells
T2 sequence (P49880 405-776 limits assumed): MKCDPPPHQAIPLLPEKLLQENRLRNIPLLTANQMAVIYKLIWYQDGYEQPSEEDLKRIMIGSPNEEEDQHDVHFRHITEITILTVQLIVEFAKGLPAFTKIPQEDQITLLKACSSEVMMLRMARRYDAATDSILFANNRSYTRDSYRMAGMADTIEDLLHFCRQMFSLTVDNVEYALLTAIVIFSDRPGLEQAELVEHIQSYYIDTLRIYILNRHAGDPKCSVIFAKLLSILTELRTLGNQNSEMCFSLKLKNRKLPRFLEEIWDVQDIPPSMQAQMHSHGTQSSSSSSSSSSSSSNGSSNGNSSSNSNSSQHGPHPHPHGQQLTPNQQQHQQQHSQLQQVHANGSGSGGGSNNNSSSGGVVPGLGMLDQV
T2 sequence (P28702 299-533 partner limits assumed): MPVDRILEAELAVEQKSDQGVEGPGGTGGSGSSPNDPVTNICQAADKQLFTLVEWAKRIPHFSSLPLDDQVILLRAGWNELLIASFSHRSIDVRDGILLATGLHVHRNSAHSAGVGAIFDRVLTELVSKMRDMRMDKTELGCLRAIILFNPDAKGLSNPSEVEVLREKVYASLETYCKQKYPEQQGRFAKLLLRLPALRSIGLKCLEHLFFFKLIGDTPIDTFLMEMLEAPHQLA
Description: Total relative light units (RLU) are shown.
Twenty μl of lysate were assayed.

Structure (SMILES): C[C@H]1C[C@H](Nc2ccc(F)cc2)c2cc(F)ccc2N1C(=O)c1ccc(F)c(C(F)(F)F)c1 (relative stereo) [Compound I-5]
- Fold Induction (10 μM) (DmEcR + LmUSP; 10 μM): 8 fold
- Fold Induction (100 μM) (DmEcR + LmUSP; 100 μM): 7 fold
- Fold Induction (10 μM) (CfEcR + LmUSP): 69 fold
- Fold Induction Average, 13B3V1 Assay 33 μM [1]: 1 fold
- Activity on AaEcR based switches [2]: very active
